Measurements reported in publication PMC3486838 (PLoS ONE, 2012).
Where two headings read alike, the source gives them in different places.

Legend:
human CYP11B2 = biological target: T1, human CYP11B2 (Homo sapiens, UniProt P19099); assay: Inhibition of CYP11B2 in V79 MZh cells expressing the enzyme; type: cell-based; conditions: for SF: selectivity factor = IC50 CYP11B1/IC50 CYP11B2: CYP11B2 over CYP11B1; for IC50: substrate deoxycorticosterone, 100 nM
T1 construct: expressed in transfected cells; host or cells: V79MZh cells
T1 sequence (P19099 25-503): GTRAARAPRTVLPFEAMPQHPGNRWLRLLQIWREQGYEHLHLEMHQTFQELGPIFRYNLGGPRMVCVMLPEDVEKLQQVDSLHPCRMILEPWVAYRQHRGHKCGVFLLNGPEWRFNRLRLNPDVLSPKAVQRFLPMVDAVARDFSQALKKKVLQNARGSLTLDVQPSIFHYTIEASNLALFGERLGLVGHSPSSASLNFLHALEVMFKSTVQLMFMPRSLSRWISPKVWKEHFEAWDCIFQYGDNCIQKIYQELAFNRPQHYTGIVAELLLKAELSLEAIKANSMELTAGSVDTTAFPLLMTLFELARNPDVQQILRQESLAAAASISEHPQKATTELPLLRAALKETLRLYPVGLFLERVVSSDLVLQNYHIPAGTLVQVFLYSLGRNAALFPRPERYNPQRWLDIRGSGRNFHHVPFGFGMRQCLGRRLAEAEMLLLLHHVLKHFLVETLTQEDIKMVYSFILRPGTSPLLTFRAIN
Procedure: (§1) V79MZh cells expressing human CYP11B1 [45] or CYP11B2 [44] were incubated with [^14C]-11-deoxycorticosterone as substrate. The assay was performed as previously described.

human CYP11B1 = biological target: T2, human CYP11B1 (Homo sapiens, UniProt P15538); assay: Inhibition of CYP11B1 in V79 MZh cells expressing the enzyme; type: cell-based
T2 construct: expressed in transfected cells; host or cells: V79MZh cells
T2 sequence (P15538 25-503): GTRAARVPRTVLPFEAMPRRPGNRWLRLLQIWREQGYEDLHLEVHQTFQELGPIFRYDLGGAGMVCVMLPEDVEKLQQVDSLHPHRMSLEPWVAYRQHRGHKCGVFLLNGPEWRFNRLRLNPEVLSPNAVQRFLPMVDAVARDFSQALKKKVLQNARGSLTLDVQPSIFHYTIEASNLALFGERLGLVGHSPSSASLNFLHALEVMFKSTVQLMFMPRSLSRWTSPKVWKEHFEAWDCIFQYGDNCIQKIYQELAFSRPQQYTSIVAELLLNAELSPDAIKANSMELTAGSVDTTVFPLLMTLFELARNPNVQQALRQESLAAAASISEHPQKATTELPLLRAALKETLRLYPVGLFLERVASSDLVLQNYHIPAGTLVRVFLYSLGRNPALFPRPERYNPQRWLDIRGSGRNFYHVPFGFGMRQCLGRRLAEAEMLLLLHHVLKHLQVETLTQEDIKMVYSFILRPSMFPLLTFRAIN
Procedure: as §1

[1] = biological target: T3, human hepatic enzyme CYP1A2 (Homo sapiens, UniProt P05177); assay: Inhibition of human hepatic CYP1A2, recombinant enzyme (Supersomes); type: biochemical
T3 sequence (P05177 1-516): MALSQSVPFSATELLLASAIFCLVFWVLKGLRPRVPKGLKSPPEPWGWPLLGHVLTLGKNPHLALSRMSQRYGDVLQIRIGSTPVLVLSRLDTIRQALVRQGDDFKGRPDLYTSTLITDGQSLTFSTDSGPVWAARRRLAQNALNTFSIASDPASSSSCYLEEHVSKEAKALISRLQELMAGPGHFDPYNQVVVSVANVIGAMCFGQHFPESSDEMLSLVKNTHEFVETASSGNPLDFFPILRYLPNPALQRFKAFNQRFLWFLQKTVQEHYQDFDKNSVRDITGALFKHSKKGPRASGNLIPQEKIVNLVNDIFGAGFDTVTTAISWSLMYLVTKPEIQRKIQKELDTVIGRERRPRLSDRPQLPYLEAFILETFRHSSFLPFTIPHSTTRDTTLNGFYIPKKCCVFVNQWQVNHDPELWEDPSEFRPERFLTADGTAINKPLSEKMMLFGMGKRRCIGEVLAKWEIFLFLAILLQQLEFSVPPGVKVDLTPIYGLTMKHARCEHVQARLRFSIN

[2] = Hamster fibroblasts (V79 MZh) expressing human CYP11B2, read-out: 11B2 IC50
[3] = Hamster fibroblasts (V79 MZh) expressing human CYP11B1, substrate deoxycorticosterone, 100 nM, read-out: 11B1 IC50
[4] = recombinantly expressed enzyme from baculovirus infected insect microsomes (Supersomes)

Row | SMILES | SF: selectivity factor = IC50 CYP11B1/IC50 CYP11B2 (human CYP11B2) | IC50 (human CYP11B2; [2]) | IC50 (human CYP11B1; [3]) | CYP1A2 inhibition at 2 µM [1] | IC50 [1, 4] | melting point | IC50 ([1]; recombinant CYP1A2) | IC50 (human CYP11B2; 11B2 IC50, Hamster fibroblasts (V79 MZh) expressing human CYP11B2) | IC50 (human CYP11B1)
1 | CC12CCC(c3cccnc3)=CC1=CCCC2=O (racemic) [Compound 17, (±)-8a-Methyl-6-pyridin-3-yl-3,7,8,8a-tetrahydro-2H-naphthalen-1-one] | 2 | 462 ± 36 nM | 1020 ± 78 nM |  |  |  |  |  | 
2 | c1cncc(C2CCC3CCCCC3C2)c1 (stereo not drawn) [Compound 1, 3-(Decahydro-naphthalen-2-yl)-pyridine] | 4 | 157 ± 14 nM | 611 ± 34 nM |  |  |  |  |  | 
3 | O=C1CC2C=C(c3cccnc3)CC2C1 (stereo not drawn) [Compound 2, 5-Pyridin-3-yl-3,3a,4,6a-tetrahydro-1H-pentalen-2-one] | 8 | 34 ± 5 nM | 282 ± 17 nM | no inhibition | > 100000 nM |  |  |  | 
4 | O=C1CC2CC(c3cccnc3)CC2C1 (stereo not drawn) [Compound 3, 5-Pyridin-3-yl-hexahydro-pentalen-2-one] |  | 258 ± 22 nM | 306 ± 25 nM |  |  |  |  |  | 
5 | C=C1CC2C=C(c3cccnc3)CC2C1 (stereo not drawn) [Compound 4, 3-(5-Methylidene-1,3a,4,5,6,6a-hexahydro-pentalen-2-yl)-pyridine] | 34 | 6 ± 2 nM | 205 ± 12 nM |  | 2170 ± 97 nM |  |  |  | 
6 | OC1CC2C=C(c3cccnc3)CC2C1 (stereo not drawn) [Compound 5, 5-Pyridin-3-yl-1,2,3,3a,4,6a-hexahydro-pentalen-2-ol] | 3 | 225 ± 21 nM | 663 ± 27 nM |  |  | 110 to 112 °C |  |  | 
7 | OC1CC2CC(c3cccnc3)CC2C1 (stereo not drawn) [Compound 6, 5-Pyridin-3-yl-octahydro-pentalen-2-ol] | 0.4 | 347 ± 35 nM | 133 ± 29 nM |  |  |  |  |  | 
8 | O=C1CCC=C(c2cccnc2)CCC1 [Compound 7, 5-Pyridin-3-yl-cyclooct-4-enone] | 4 | 205 ± 16 nM | 851 ± 58 nM |  |  |  |  |  | 
9 | O=C1CCCC(c2cccnc2)CCC1 [Compound 8, 5-Pyridin-3-yl-cyclooctanone] | 3 | 443 ± 36 nM | 1350 ± 79 nM |  |  |  |  |  | 
10 | OC1CCC=C(c2cccnc2)CCC1 (stereo not drawn) [Compound 9, 5-Pyridin-3-yl-cyclooct-4-enol] | 2 | 141 ± 11 nM | 348 ± 25 nM |  |  |  |  |  | 
11 | OC1CCCC(c2cccnc2)CCC1 (stereo not drawn) [Compound 10, (endo/exo)-5-Pyridin-3-yl-cyclooctanol] |  | 294 ± 23 nM | 246 ± 36 nM |  |  |  |  |  | 
12 | C1=C(c2cccnc2)CCCCCC1 [Compound 11, 3-Cyclooct-1-enyl-pyridine] | 2 | 81 ± 7 nM | 195 ± 15 nM |  | > 100000 nM |  |  |  | 
13 | c1cncc(C2CCCCCCC2)c1 [Compound 12, 3-Cyclooctyl-pyridine] | 50 | 21 ± 5 nM | 1050 ± 67 nM | no inhibition | > 100000 nM |  |  |  | 
14 | C1=C(c2cccnc2)CCCCCCCC1 [Compound 13, 3-Cyclodec-1-enyl-pyridine] | 12 | 21 ± 3 nM | 258 ± 16 nM | no inhibition | > 100000 nM |  |  |  | 
15 | c1cncc(C2CCCCCCCCC2)c1 [Compound 14, 3-Cyclodecyl-pyridine] | 40 | 22 ± 2 nM | 872 ± 79 nM |  | > 100000 nM |  |  |  | 
16 | C1=C(c2cccnc2)CCCCCCCCCC1 [Compound 15, 3-Cyclododec-1-enyl-pyridine] |  | 1170 ± 97 nM | > 10000 nM |  |  |  |  |  | 
17 | c1cncc(C2CCCCCCCCCCC2)c1 [Compound 16, 3-Cyclododecyl-pyridine] | 3 | 636 ± 32 nM | 1770 ± 56 nM |  |  |  |  |  | 
18 | C1=C(c2cccnc2)C2CCC1C2 (stereo not drawn) [Compound 18, 3-Bicyclo[2.2.1]hept-2-en-2-yl-pyridine] | 3 | 889 ± 57 nM | 2130 ± 113 nM |  |  |  |  |  | 
19 | c1cncc(C2CC3CCC2C3)c1 (stereo not drawn) [Compound 19, (endo/exo)-3-Bicyclo[2.2.1]hept-2-yl-pyridine] |  | 99 ± 21 nM | 137 ± 12 nM |  | 44430 ± 388 nM |  | 44000 nM |  | 
20 | CN1C2C=C(c3cccnc3)CC1CC2 (stereo not drawn) [Compound 20, 8-Methyl-3-pyridin-3-yl-8-aza-bicyclo[3.2.1]oct-2-ene] |  | 2440 ± 88 nM | > 5000 nM |  |  |  |  |  | 
21 | CN1C2CCC1CC(c1cccnc1)C2 (stereo not drawn) [Compound 21, (endo/exo)-8-Methyl-3-pyridin-3-yl-8-aza-bicyclo[3.2.1]octane] |  |  |  |  |  |  |  | 2830 ± 135 nM | > 10000 nM
22 | COc1ccc2cc(-c3cccnc3)ccc2c1 [I, reference compound] |  |  |  |  | 41 ± 5 nM |  |  |  | 
23 | COC1CCc2cc(-c3cccnc3)ccc2C1 (stereo not drawn) [II, reference compound] | 347 | 3 ± 1 nM | 1140 ± 78 nM |  | 440 ± 11 nM |  |  |  | 
24 | COc1ccc2c(c1)CC(C)C(c1cccnc1)=C2 (stereo not drawn) [III, reference compound] | 79 | 3 ± 1 nM | 248 ± 19 nM |  | 741 ± 55 nM |  |  |  | 
